{
  "source": "patent US10844049B2",
  "about": "“GLP-1R agonists and uses thereof” (QILU REGOR THERAPEUTICS INC., priority 2018, dated 2020)",
  "data": [
    {"molecular_target": "GLP1R (Homo sapiens, UniProt P43220)", "sequence (P43220 24-463)": "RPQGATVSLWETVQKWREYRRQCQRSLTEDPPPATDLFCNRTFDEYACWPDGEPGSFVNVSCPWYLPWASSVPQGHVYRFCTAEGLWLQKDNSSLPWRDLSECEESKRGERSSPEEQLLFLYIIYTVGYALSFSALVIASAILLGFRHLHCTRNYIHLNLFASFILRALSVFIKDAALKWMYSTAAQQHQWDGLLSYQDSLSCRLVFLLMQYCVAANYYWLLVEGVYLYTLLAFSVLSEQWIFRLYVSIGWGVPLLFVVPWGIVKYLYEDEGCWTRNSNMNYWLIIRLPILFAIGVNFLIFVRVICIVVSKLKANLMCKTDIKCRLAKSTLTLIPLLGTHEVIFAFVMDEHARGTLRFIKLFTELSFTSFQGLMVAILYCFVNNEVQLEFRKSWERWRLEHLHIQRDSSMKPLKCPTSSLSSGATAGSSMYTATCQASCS", "assay": "GLP1R cAMP HTRF assay, HEK293/GLP-1R/CRE/Luc (HEK293T cells)", "assay_type": "cell-based", "conditions": "read-out: EC50", "how_it_was_run": "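cAMP accumulation via HTRF after 30 min, 37 °C exposure of 1000 receptor-expressing cells/well to compound (0.5% DMSO final) in IBMX (500 μM)/0.1% BSA DPBS.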", "units": {"EC50": "nM"}, "values": [
      {"compound": "O=C(O)c1ccc2nc(CC3CCN(c4cccc(OCc5ccc(Cl)cn5)n4)CC3)n(C[C@@H]3CCO3)c2c1F", "note": "[Compound 232, (S)-2-((l-(6-((5-chloropyridin-2-yl)methoxy)pyridin-2-yl)piperidin-4-yl)methyl)-7-fluoro-1-(oxetan-2-ylmethyl)-1H-benzo[d]imidazole-6-carboxylic acid]", "EC50": "≤ 150"},
      {"compound": "O=C(O)c1ccc2nc(CN3CC4CCC3CN4c3cccc(OCc4ccc(Cl)cc4F)n3)n(C[C@@H]3CCO3)c2c1", "note": "(stereo partly drawn) [Compound 17, 2-((5-(6-((4-chloro-2-fluorobenzyl)oxy)pyridin-2-yl)-2,5-diazabicyclo[2.2.2]octan-2-yl)methyl)-1-(((S)-oxetan-2-yl)methyl)-1 h-benzo[d]imidazole-6-carboxylic acid]", "EC50": "> 1000"},
      {"compound": "O=C(O)c1ccc2nc(CN3CC=C(c4ccc(F)c(OCc5ccc(Cl)cc5F)c4F)CC3)n(C[C@@H]3CCO3)c2c1", "note": "[Compound 63, (S)-2-((4-(3-(4-chloro-2-fluorobenzyloxy)-2,4-difluorophenyl)-5,6-dihydropyridin-1(2H)-yl)methyl)-1-(oxetan-2-ylmethyl)-1H-benzo[d]imidazole-6-carboxylic acid]", "EC50": "≤ 1000"},
      {"compound": "O=C(O)c1ccc2nc(CN3CC=C(c4nc(OCc5ccc(C(F)(F)F)nc5)c(F)cc4F)CC3)n(C[C@@H]3CCO3)c2c1", "note": "[Compound 220, (S)-2-((3,5-difluoro-6-((6-(trifluoromethyl)pyridin-3-yl)methoxy)-5′,6′-dihydro-[2,4′-bipyridin]-1′(2′H)-yl)methyl)-1-(oxetan-2-ylmethyl)-1H-benzo[d]imidazole-6-carboxylic acid]", "EC50": "≤ 15"},
      {"compound": "O=c1[nH]c(-c2ccc3nc(CN4CC=C(c5cccc(OCc6ccc(Cl)cc6F)n5)CC4)n(C[C@@H]4CCO4)c3c2)no1", "note": "[Compound 62, (S)-3-(2-((4-(6-(4-chloro-2-fluorobenzyloxy)pyridin-2-yl)-5,6-dihydropyridin-1(2H)-yl)methyl)-1-(oxetan-2-ylmethyl)-1H-benzo[d]imidazol-6-yl)-1,2,4-oxadiazol-5(4H)-one]", "EC50": "≤ 150"},
      {"compound": "O=C(O)c1ccc2nc(CN3CC=C(c4nccc(OCc5ccc(Cl)cc5F)n4)CC3)n(C[C@@H]3CCO3)c2c1", "note": "[Compound 33, (S)-2-((4-(4-(4-chloro-2-fluorobenzyloxy)pyrimidin-2-yl)-5,6-dihydropyridin-1(2H)-yl)methyl)-1-(oxetan-2-ylmethyl)-1 h-benzo[d]imidazole-6-carboxylic acid]", "EC50": "≤ 15"},
      {"compound": "O=C(NS(=O)(=O)C(F)(F)F)c1ccc2nc(CN3CC=C(c4cccc(OCc5ccc(Cl)cc5F)n4)CC3)n(C[C@@H]3CCO3)c2c1", "note": "[Compound 173, (S)-2-((6-((4-chloro-2-fluorobenzyl)oxy)-3′,6′-dihydro-[2,4′-bipyridin]-1′(2′H)-yl)methyl)-1-(oxetan-2-ylmethyl)-N-((trifluoromethyl)sulfonyl)-1H-benzo[d]imidazole-6-carboxamide]", "EC50": "≤ 1000"},
      {"compound": "O=C(O)c1ccc2nc(CC3CCN(c4cccc(OCc5ccc(F)cc5F)n4)CC3)n(C[C@@H]3CCO3)c2n1", "note": "[Compound 229, (S)-2-((l-(6-((2,4-difluorobenzyl)oxy)pyridin-2-yl)piperidin-4-yl)methyl)-3-(oxetan-2-ylmethyl)-3H-imidazo[4,5-b]pyridine-5-carboxylic acid]", "EC50": "≤ 15"},
      {"compound": "O=C(O)c1ccc2nc(CN3CC=C(c4cccc(OCc5cccnc5)n4)CC3)n(C[C@@H]3CCO3)c2c1", "note": "[Compound 158]", "EC50": "≤ 150"},
      {"compound": "CCn1cncc1Cn1c(CN2CC=C(c3cccc(OCc4ccc(C#N)cc4F)n3)CC2)nc2ccc(C(=O)O)cc21", "note": "[Compound 182, 2-((6-((4-cyano-2-fluorobenzyl)oxy)-3′,6′-dihydro-[2,4′-bipyridin]-1′(2′H)-yl)methyl)-1-((1-ethyl-1H-imidazol-5-yl)methyl)-1H-benzo[d]imidazole-6-carboxylic acid]", "EC50": "≤ 15"}
    ]}
  ]
}
